Source: PMC3711119 (European journal of medicinal chemistry, 2013)

System: human neutrophils
Experiment: Ca2+ mobilization
Format: cell-based
Conditions: Neutrophil, read-out: Ca2+ flux Efficacy

SMILES	Emax [%]
COc1cccc(Cc2ccnn(CC(=O)Nc3ccc(Br)cc3)c2=O)c1 [Compound 6a, N-(4-Bromophenyl)-2-[5-(3-methoxybenzyl)-6-oxopyridazin-1(6H)-yl]acetamide]	100
Cc1cc(N)c(=O)n(CC(=O)Nc2ccc(Br)cc2)n1 [Compound 27, N-(4-Bromophenyl)-2-[5-amino-3-methyl-6-oxopyridazin-1(6H)-yl]acetamide]	100
